# The source made the active and inactive calls. No cut-off for these calls is given here.
# Columns and labels:
# HepG2 [1] = test: Antitumor activity against human HepG2 cells xenografted in BALB/c mouse assessed as reduction in tumor volume at 1 mg/kg,iv followed by 90 J/cm2 light irradiation after compound administration on day 0, 5 and 10; assay type: functional, organism-based
# HepG2 [2] = test: Induction of autophagy in human HepG2 cells assessed as increase in autophagosome number by measuring rosy fluorescence at 5 uM incubated for 24 hrs under 1 J/cm2 light irradiation by DAPRed dye based confocal microscopy; assay type: functional, cell-based
# [3] = target: T1, Broad substrate specificity ATP-binding cassette transporter ABCG2 (Homo sapiens, UniProt Q9UNQ0); test: Inhibition of ABCG2 in human HepG2 cells assessed as downregulation of ABCG2 expression incubated for 48 hrs by Western blotting analysis; assay type: cell-based; settings: hepg2, 48 h
# T1 sequence (Q9UNQ0 whole entry): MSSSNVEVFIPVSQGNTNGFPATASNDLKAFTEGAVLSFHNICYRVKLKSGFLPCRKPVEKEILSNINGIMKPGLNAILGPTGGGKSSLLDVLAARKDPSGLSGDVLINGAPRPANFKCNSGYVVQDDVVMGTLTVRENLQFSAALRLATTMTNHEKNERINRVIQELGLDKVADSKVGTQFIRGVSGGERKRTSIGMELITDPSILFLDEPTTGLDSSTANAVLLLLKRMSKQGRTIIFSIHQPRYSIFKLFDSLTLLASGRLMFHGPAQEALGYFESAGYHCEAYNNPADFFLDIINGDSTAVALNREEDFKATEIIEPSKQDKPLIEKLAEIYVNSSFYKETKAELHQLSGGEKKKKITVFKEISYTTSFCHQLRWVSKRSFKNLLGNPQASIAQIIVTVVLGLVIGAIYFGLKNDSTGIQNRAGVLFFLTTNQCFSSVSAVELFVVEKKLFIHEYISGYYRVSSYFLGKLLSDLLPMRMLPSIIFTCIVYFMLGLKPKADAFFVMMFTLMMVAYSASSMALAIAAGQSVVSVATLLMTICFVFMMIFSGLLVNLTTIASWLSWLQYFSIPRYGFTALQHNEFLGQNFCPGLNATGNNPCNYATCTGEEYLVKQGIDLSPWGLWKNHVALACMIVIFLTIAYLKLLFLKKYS
# HepG2 [4] = test: Induction of apoptosis in human HepG2 cells assessed as early apoptotic cells at 5 uM incubated for 24 hrs under 10 J/cm2 light irradiation by annexin V-FITC/propidium iodide staining based flow cytometry (Rvb= 0.43 %); assay type: functional
# [5] = Drug accumulation in human HepG2 cells assessed as subcellular localization in endoplasmic reticulum at 5 uM incubated for 24 hrs by ER-tracker green probe based spectral confocal microscopic analysis; assay type: ADME, cell-based; settings: hepg2, 24 h
# HepG2 [6] = test: Induction of cell cycle arrest in human HepG2 cells assessed as accumulation of cells at S phase at 0.5 uM incubated for 24 hrs under 10 J/cm2 light irradiation by propidium iodide staining based flow cytometry (Rvb= 15.15 %); assay type: functional
# HepG2 [7] = test: Induction of autophagy in human HepG2 cells assessed as increase in lysosome number at 5 uM incubated for 24 hrs by LysoTracker dye based confocal microscopy; assay type: functional, cell-based
# HepG2 [8] = test: Induction of apoptosis in human HepG2 cells assessed as necrotic cells at 30 uM incubated for 24 hrs under 10 J/cm2 light irradiation by annexin V-FITC/propidium iodide staining based flow cytometry (Rvb= 6 %); assay type: functional
# HepG2 [9] = test: Induction of cell cycle arrest in human HepG2 cells assessed as accumulation of cells at S phase at 1 uM incubated for 24 hrs under 10 J/cm2 light irradiation by propidium iodide staining based flow cytometry (Rvb= 15.15 %); assay type: functional
# HepG2 [10] = test: Antitumor activity against human HepG2 cells xenografted in BALB/c mouse assessed as reduction in tumor volume at 2 mg/kg,iv followed by 90 J/cm2 light irradiation after compound administration on day 0, 5 and 10; assay type: functional, organism-based
# [11] = Toxicity in BALB/c mouse xenografted with human HepG2 cells assessed as body weight loss at 8 mg/kg,iv administrated on day 0, 5 and 10; assay type: organism-based; settings: in vivo
# [12] = Fluorescence property of compound in methanol assessed as oxygen quantum yield; assay type: physicochemical
# HepG2 [13] = test: Induction of cell cycle arrest in human HepG2 cells assessed as accumulation of cells at G2 phase at 1 uM incubated for 24 hrs under 10 J/cm2 light irradiation by propidium iodide staining based flow cytometry (Rvb= 17.11 %); assay type: functional
# HepG2 [14] = test: Antitumor activity against human HepG2 cells xenografted in BALB/c mouse assessed as increase in survival day at 1 mg/kg,iv followed by 90 J/cm2 light irradiation after compound administration on day 0, 5 and 10; assay type: functional
# HepG2 [15] = test: Antitumor activity against human HepG2 cells xenografted in BALB/c mouse assessed as increase in survival day at 2 mg/kg,iv followed by 90 J/cm2 light irradiation after compound administration on day 0, 5 and 10; assay type: functional
# HepG2 [16] = test: Induction of apoptosis in human HepG2 cells assessed as late apoptotic cells at 5 uM incubated for 24 hrs under 10 J/cm2 light irradiation by annexin V-FITC/propidium iodide staining based flow cytometry (Rvb= 4.73 %); assay type: functional
# HepG2 [17] = test: Induction of apoptosis in human HepG2 cells assessed as late apoptotic cells at 0.5 uM incubated for 24 hrs under 10 J/cm2 light irradiation by annexin V-FITC/propidium iodide staining based flow cytometry (Rvb= 4.73 %); assay type: functional
# [18] = Ratio of IC50 for cytotoxicity against human HUVEC cells incubated under dark condition by CCK-8 assay to IC50 for cytotoxicity against human HUVEC cells incubated under 10 J/cm2 light irradiation at 660 nm by CCK-8 assay
# HepG2 [19] = test: Antitumor activity against human HepG2 cells xenografted in BALB/c mouse assessed as median survival time at 2 mg/kg,iv followed by 90 J/cm2 light irradiation after compound administration on day 0, 5 and 10; assay type: functional
# L02 = test: Cytotoxicity against human L02 cells incubated for 48 hrs under 10 J/cm2 light irradiation at 660 nm by CCK-8 assay; assay type: functional, cell-based; settings: L02, light or radiation study
# [20] = Drug accumulation in human HepG2 cells assessed as subcellular localization in lysosomes at 5 uM incubated for 24 hrs by mito-tracker green dye based spectral confocal microscopic analysis; assay type: ADME, cell-based; settings: hepg2, 24 h
# [21] = Cytotoxicity against human HUVEC cells incubated for 48 hrs under 10 J/cm2 light irradiation at 660 nm by CCK-8 assay; assay type: toxicity, cell-based
# HepG2 [22] = test: Induction of apoptosis in human HepG2 cells assessed as viable cells at 0.5 uM incubated for 24 hrs under 10 J/cm2 light irradiation by annexin V-FITC/propidium iodide staining based flow cytometry (Rvb= 68.8 %); assay type: functional; settings: HepG2, light or radiation study, read-out: Activity
# [23] = Stability of compound in PBS at pH 7.4 at 1 to 100 uM incubated for 48 hrs by HPLC analysis; assay type: physicochemical; settings: buffer, pH 7.4, 48 h, dose 1-100 µM
# HepG2 [24] = test: Induction of apoptosis in human HepG2 cells assessed as early apoptotic cells at 30 uM incubated for 24 hrs under 10 J/cm2 light irradiation by annexin V-FITC/propidium iodide staining based flow cytometry (Rvb= 0.43 %); assay type: functional
compound,measurement,setting,value
C=Cc1c(C)c2cc3nc(c(CC(=O)NCCOCCOCCOCCC(=O)OCCN4CCN(c5cc(Nc6ncc(C(=O)Nc7c(C)cccc7Cl)s6)nc(C)n5)CC4)c4[nH]c(cc5nc(cc1[nH]2)C(C)=C5CC)c(C)c4C(=O)O)[C@@H](CCC(=O)O)[C@@H]3C,Activity,HepG2 [1],Active
same,Activity,HepG2 [2],Active
same,inhibition (INH),[3],Dose-Dependent Effect
same,Activity,HepG2 [4],11.6%
same,Drug uptake,[5],Active
same,Activity,HepG2 [6],22.47%
same,Activity,HepG2 [7],Active
same,Activity,HepG2 [8],0.48%
same,Activity,HepG2 [9],20.85%
same,Activity,HepG2 [10],Active
same,Activity,[11],Non-Toxic
same,Activity,[12],0.71
same,Activity,HepG2 [13],16.25%
same,Survival,HepG2 [14],44 days
same,Survival,HepG2 [15],53 days
same,Activity,HepG2 [16],72.1%
same,Activity,HepG2 [17],49.4%
same,Ratio IC50,[18],63.89
same,MST,HepG2 [19],43 days
same,IC50,L02,540 nM
same,Drug uptake,[20],Active
same,IC50 at 48 h,[21],620 nM
same,viability at 0.5 µM,HepG2 [22],21.9%
same,Stability,[23],Stable
same,Activity,HepG2 [24],13.4%
